Our source for the IC50 values is patent publication US11957687B2 (REGENERON PHARMACEUTICALS, INC., priority 2019, dated 2024).

The target in this assay is HSD17B13 (Homo sapiens (Human), UniProt Q7Z5P4). Description: HSD17B13 enzymatic inhibition assay (150 nM or 50 nM HSD17B13). The format is biochemical. As to conditions: 50 nM HSD17B13; read-out: Inhibition of 50 nM of HSD17B13 IC50.
HSD17B13, sequence (Q7Z5P4 other isoform, or with tags, fused parts or gaps): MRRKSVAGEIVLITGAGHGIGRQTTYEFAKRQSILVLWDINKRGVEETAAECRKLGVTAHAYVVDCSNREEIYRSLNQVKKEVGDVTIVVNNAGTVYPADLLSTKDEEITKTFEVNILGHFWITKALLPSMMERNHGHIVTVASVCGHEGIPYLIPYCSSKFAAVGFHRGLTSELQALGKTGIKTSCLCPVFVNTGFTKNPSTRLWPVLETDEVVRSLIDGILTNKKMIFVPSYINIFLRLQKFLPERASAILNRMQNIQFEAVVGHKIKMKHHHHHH
As to `CCCc1ccc2c(c1)C(NC(=O)c1ccc(C(F)(F)F)[nH]c1=O)c1ccccc1S2(=O)=O` (stereo not drawn) [Compound 469, N-(10,10-dioxido-2-propyl-9H-thioxanthen-9-yl)-2-oxo-6-(trifluoromethyl)-1,2-dihydropyridine-3-carboxamide], the IC50 came out at 310 nM.

As to `Cc1ccc2c(c1)C(NC(=O)c1ccc(C(F)(F)F)[nH]c1=O)c1ccccc1S2(=O)=O` (stereo not drawn) [Compound 470, N-(2-methyl-10,10-dioxido-9H-thioxanthen-9-yl)-2-oxo-6-(trifluoromethyl)-1,2-dihydropyridine-3-carboxamide], the IC50 was 420 nM.

Take `C=CCc1ccc2c(c1)C(NC(=O)c1ccc(C(F)(F)F)[nH]c1=O)c1ccccc1O2` (stereo not drawn) [Compound 471, N-(2-allyl-9H-xanthen-9-yl)-2-oxo-6-(trifluoromethyl)-1,2-dihydropyridine-3-carboxamide]: the IC50 amounted to 280 nM.

Turning to `O=C(NC1c2ccccc2S(=O)(=O)c2ccc(CC(F)(F)F)cc21)c1ccc(C(F)(F)F)[nH]c1=O` (stereo not drawn) [Compound 472, N-(10,10-dioxido-2-(2,2,2-trifluoroethyl)-9H-thioxanthen-9-yl)-2-oxo-6-(trifluoromethyl)-1,2-dihydropyridine-3-carboxamide], the IC50 stood at 480 nM.

As for `Cc1ccc2c(c1)S(=O)(=O)c1cc(C)ccc1C2NC(=O)c1cc(Br)c(C(F)(F)F)[nH]c1=O` [Compound 473, 5-bromo-N-(3,6-dimethyl-10,10-dioxido-9H-thioxanthen-9-yl)-2-oxo-6-(trifluoromethyl)-1,2-dihydropyridine-3-carboxamide], the IC50 is 30 nM.

As to `Cc1ccc2c(c1)S(=O)(=O)c1cc(C)ccc1C2NC(=O)c1cc(C)c(C(F)(F)F)[nH]c1=O` [Compound 474, N-(3,6-dimethyl-10,10-dioxido-9H-thioxanthen-9-yl)-5-methyl-2-oxo-6-(trifluoromethyl)-1,2-dihydropyridine-3-carboxamide], the IC50 was determined as 30 nM.

Take `Cc1ccc2c(c1)S(=O)(=O)c1cc(C)ccc1C2NC(=O)c1ccc(C(F)(F)F)[nH]c1=O` [Compound 475, N-(3,6-dimethyl-10,10-dioxido-9H-thioxanthen-9-yl)-2-oxo-6-(trifluoromethyl)-1,2-dihydropyridine-3-carboxamide]: the 50% inhibitory concentration (IC50) worked out at 10 nM.

Regarding `Cc1ccc2c(c1)S(=O)(=O)c1cccc(C)c1C2NC(=O)c1ccc(C(F)(F)F)[nH]c1=O` (stereo not drawn) [Compound 476, N-(1,6-dimethyl-10,10-dioxido-9H-thioxanthen-9-yl)-2-oxo-6-(trifluoromethyl)-1,2-dihydropyridine-3-carboxamide], the IC50 is over 10000 nM.

With `O=C(NC1CCOc2cccnc21)c1ccc(C(F)(F)F)[nH]c1=O` (stereo not drawn) [Compound 477, N-(3,4-dihydro-2H-pyrano[3,2-b]pyridin-4-yl)-2-oxo-6-(trifluoromethyl)-1,2-dihydropyridine-3-carboxamide], the IC50 was over 10000 nM.

For `O=C(NC(c1ccccc1)c1cccc(CC(F)(F)F)c1)c1ccc(C(F)(F)F)[nH]c1=O` (stereo not drawn) [Compound 478, 2-oxo-N-(phenyl(3-(2,2,2-trifluoroethyl)phenyl)methyl)-6-(trifluoromethyl)-1,2-dihydropyridine-3-carboxamide], the IC50 was 1410 nM.

In the case of `O=C(NC1c2ccccc2Oc2ccc(CC(F)(F)F)cc21)c1ccc(C(F)(F)F)[nH]c1=O` (stereo not drawn) [Compound 479, 2-oxo-N-(2-(2,2,2-trifluoroethyl)-9H-xanthen-9-yl)-6-(trifluoromethyl)-1,2-dihydropyridine-3-carboxamide], the IC50 came to 260 nM.

Take `O=C(NC1c2ccccc2Sc2ccc(CC(F)(F)F)cc21)c1ccc(C(F)(F)F)[nH]c1=O` (stereo not drawn) [Compound 480, 2-oxo-N-(2-(2,2,2-trifluoroethyl)-9H-thioxanthen-9-yl)-6-(trifluoromethyl)-1,2-dihydropyridine-3-carboxamide]: the IC50 is 400 nM.

In the case of `O=C(NC1c2ccccc2Oc2ccc(C3CNC3)cc21)c1ccc(C(F)(F)F)[nH]c1=O` (stereo not drawn) [Compound 481, N-(2-(azetidin-3-yl)-9H-xanthen-9-yl)-2-oxo-6-(trifluoromethyl)-1,2-dihydropyridine-3-carboxamide], the IC50 was found to be 1420 nM.

Turning to `CN1CC(c2ccc3c(c2)C(NC(=O)c2ccc(C(F)(F)F)[nH]c2=O)c2ccccc2O3)C1` (stereo not drawn) [Compound 482, N-(2-(1-methylazetidin-3-yl)-9H-xanthen-9-yl)-2-oxo-6-(trifluoromethyl)-1,2-dihydropyridine-3-carboxamide], the IC50 is 2390 nM.

With `O=C(NC1c2ccccc2Oc2cc(C3CNC3)ccc21)c1ccc(C(F)(F)F)[nH]c1=O` (stereo not drawn) [Compound 483, N-(3-(azetidin-3-yl)-9H-xanthen-9-yl)-2-oxo-6-(trifluoromethyl)-1,2-dihydropyridine-3-carboxamide], the IC50 worked out at 1110 nM.

For `CN1CC(c2ccc3c(c2)Oc2ccccc2C3NC(=O)c2ccc(C(F)(F)F)[nH]c2=O)C1` (stereo not drawn) [Compound 484, N-(3-(1-methylazetidin-3-yl)-9H-xanthen-9-yl)-2-oxo-6-(trifluoromethyl)-1,2-dihydropyridine-3-carboxamide], the IC50 was found to be 4980 nM.

On to `Cc1ccc2c(c1)Oc1cc(C)ccc1C2NC(=O)c1ccc(C(C)C)[nH]c1=O` [Compound 485, N-(3,6-dimethyl-9H-xanthen-9-yl)-6-isopropyl-2-oxo-1,2-dihydropyridine-3-carboxamide], for which the IC50 was over 10000 nM.

With `Cc1ccc2c(c1)Oc1cc(C)ccc1C2NC(=O)c1ccc(C(C)(C)C)[nH]c1=O` [Compound 486, 6-(tert-butyl)-N-(3,6-dimethyl-9H-xanthen-9-yl)-2-oxo-1,2-dihydropyridine-3-carboxamide], the IC50 was over 10000 nM.

For `Cc1ccc2c(c1)Oc1cc(C)ccc1C2NC(=O)c1ccc(C(C)(C)C)nc1Cl` [Compound 487, 6-(tert-butyl)-2-chloro-N-(3,6-dimethyl-9H-xanthen-9-yl)nicotinamide], the IC50 was over 10000 nM.

As to `O=C(NC1c2ccccc2Oc2cc(C3COC3)ccc21)c1ccc(C(F)(F)F)[nH]c1=O` (stereo not drawn) [Compound 488, N-(3-(oxetan-3-yl)-9H-xanthen-9-yl)-2-oxo-6-(trifluoromethyl)-1,2-dihydropyridine-3-carboxamide], the IC50 is 110 nM.

Consider `O=C(NC1c2ccccc2Oc2ccc(C3COC3)cc21)c1ccc(C(F)(F)F)[nH]c1=O` (stereo not drawn) [Compound 489, N-(2-(oxetan-3-yl)-9H-xanthen-9-yl)-2-oxo-6-(trifluoromethyl)-1,2-dihydropyridine-3-carboxamide], for which the IC50 came to 230 nM.

For `Cc1ccc(C(C(=O)Nc2ccc(C(F)(F)F)[nH]c2=O)c2ccc(C)cc2)cc1` [Compound 492, N-(2-oxo-6-(trifluoromethyl)-1,2-dihydropyridin-3-yl)-2,2-di-p-tolylacetamide], the IC50 was over 10000 nM.

On to `Cc1ccc2c(c1)S(=O)(=O)c1cc(C)ccc1C2NC(=O)c1cc(-c2ccncc2)c(C(F)(F)F)[nH]c1=O` [Compound 493, N-(3,6-dimethyl-10,10-dioxido-9H-thioxanthen-9-yl)-6-oxo-2-(trifluoromethyl)-1,6-dihydro-[3,4′-bipyridine]-5-carboxamide], for which the IC50 came out at 90 nM.

In the case of `Cc1ccc2c(c1)Oc1cc(C)ccc1C2NC(=O)c1cc(-c2cc[nH]c(=O)c2)c(C(F)(F)F)[nH]c1=O` [Compound 494, N-(3,6-dimethyl-9H-xanthen-9-yl)-2′,6-dioxo-2-(trifluoromethyl)-1,1′,2′,6-tetrahydro-[3,4′-bipyridine]-5-carboxamide], the IC50 amounted to 20 nM.
